Legend:
MMP-9 = test: Aortic MMP-9 immunohistochemistry, ED-1 colocalization and quantitative PCR; format: in vivo, Sprague-Dawley rats
Excerpt: (§1) In other experiments, male rats were randomized to implantation of an estrogen pellet or sham implantation (n=13, each). The former involved the subcutaneous implantation of a 21-day slow-release 0.1-mg 17-β-estradiol pellet (Innovative Research of America, Sarasota, Fla.) in the posterior neck. Sham rats underwent the same implantation procedure without insertion of any pellet. This particular estradiol dose results in serum estradiol levels at 2 to 3 weeks of 44.7±6.1 pg/mL compared with 15.0±2.2 pg/mL in control rats (P<0.05). Rat aortas from both groups were subjected to elastase perfusion 5 days later. The aortas were then removed for study 7 or 14 days after elastase perfusion.
Immunohistochemistry was undertaken after deparaffinization, rehydration, and unmasking using Trilogy (Cell Marque Corp, Hot Springs, Ariz.) in a Princess model pressure cooker (Cell Marque). Endogenous peroxidase activity was then blocked using 3% hydrogen peroxide in methanol. To help ensure that rejection was not occurring in elastase-perfused or transplanted animals, anti-T lymphocyte immunohistochemistry was performed. Specifically, antirat CD3 monoclonal antibody (BD Pharmingen, San Diego, Calif.) was used as the primary antibody and mouse IgG Vectastain (Vector Laboratories, Burlingame, Calif.) as the secondary antibody. Rat spleen was used as the positive control for anti-CD3 staining. […]
Expression of MMP-9 and β-actin mRNA was determined using quantitative PCR. […] The resultant cDNA was amplified by Taq Polymerase (Promega, Madison, Wis.) in a SmartCycler quantitative PCR system (Cepheid, Sunnyvale, Calif.). […]
MMP-9 forward primer, CGCCAACTATGACCAGGATA (SEQ ID NO: 1); MMP-9 reverse primer, GTT GCC CCC AGT TAC AGT (SEQ ID NO: 2); β-actin forward primer, ATGGGTCAGAAGGATTCCTATGTG (SEQ ID NO: 3); β-actin reverse primer, CTTCATGAGGTAGTCAGTCAGGTC (SEQ ID NO: 4). […] Quantification of mRNA levels used ΔCt values, calculated by the formula: […]
Expression of the target gene in ratio to β-actin expression was calculated by the formula: […]

[1] = Serum estradiol levels after pellet implantation; format: in vivo; details: at 2 to 3 weeks, 21-day slow-release 0.1-mg pellet s.c.; control rats 15.0±2.2
Excerpt: as §1
Male Sprague-Dawley rats (190 g to 210 g) were obtained from Charles River Laboratories. Subcutaneous neck implantation of a 21-day slow release 0.1 mg 17-β-estradiol pellet (Innovative Research of America) was performed under general inhalational anesthesia. This particular estradiol dose results in serum estradiol levels at 2 to 3 weeks of 44.7±6.1 pg/mL compared with 15.0±2.2 pg/mL in control rats (p<0.05). Three weeks after pellet implantation, the infrarenal aorta was explanted under general anesthesia. The aorta was briefly rinsed free of blood and debris with cold 1×PBS containing antibiotics, cut into 1-mm rings, and incubated for 48 hours in 1 mL of serum-free DMEM containing antibiotics and IL-1β. […]

serum estradiol levels [1]: 44.7 ± 6.1 pg/mL
SMILES: C[C@]12CC[C@@H]3c4ccc(O)cc4CC[C@H]3[C@@H]1CC[C@@H]2O [17-β-estradiol]
aortic MMP-9 staining (MMP-9; immunohistochemistry, estradiol treated rats compared with sham rats): less evident
aortic MMP-9 mRNA expression (MMP-9; quantitative PCR normalized to β-actin, 7 days after elastase perfusion, sham 0.12±0.04, P=0.11): 0.0017±0.004 mRNA copies
colocalization of aortic ED-1 and MMP-9 (MMP-9; rats treated with estradiol compared with sham rats): less prominently stained cells
